This is an account of results in PMC11760092, “Pretreatment with serine protease inhibitors impairs Leishmania amazonensis survival on macrophages” (Parasites & Vectors, 2025).

Like-named read-outs stand apart in the source and are kept apart here.

Series [1] has as its system L. amazonensis serine proteases. Kind of series: Enzymatic assay on promastigote lysate with substrate ABZ-V-F-R-S-L-K-Q EDDnp. Format: biochemical, Leishmania amazonensis. The following applies: 3 µM, first 10 min. Here is the method:
The enzymatic assay was conducted in a final volume of 200 µL per well, containing 1 µM of substrate, supernatant of lysate of 3.7 × 10^6 parasites, 2.5 µM of inhibitors (PF-429242 and TPCK) or 3 µM of E-64 in Tris-buffered pH 8. Substrate ABZ-V-F-R-S-L-K-Q EDDnp was used, which was provided by Dr. Luiz Juliano Neto from the Department of Biophysics of UNIFESP-EPM and is described in Alves, L.C. et al.. The lysate was prepared with promastigotes in stationary phase of growth, washed three times with PBS pH 7.2, and in the last wash it was resuspended in Tris-buffered pH 8 with 1% NP40. The parasites were submitted to five rapid freeze–thaw cycles in liquid nitrogen. The lysate was centrifuged at 20,000g for 10 min at […]. The supernatant was stored at −20 °C until use. The read was carried out using the spectrofluorimeter SoftMax M3 with excitation/emission of 320/420 nm.

A further series in a line: Cytotoxicity assay (MTT). In kind it is cell-based, BALB/c mice. The conditions noted are these: BALB/c, mouse. The procedure:
To determinate the toxicity of the inhibitors on mammalian cells, peritoneal macrophages from BALB/c mice, obtained by peritoneal lavage, in concentration of 2 × 10^6 macrophages/mL, were adhered in 96-well culture plates overnight at 37 °C with 5% CO2. The inhibitors were then added in different concentrations and incubated for 72 h at 37 °C and 5% CO2. Cell viability was also assessed by the MTT method. Cytotoxic concentration of 50% of macrophages (CC50) values were calculated using GraPadPrism 8 software. Three independent experiments in triplicate were performed.

For series [2], the system named is Leishmania amazonensis-WT promastigotes. Kind of series: Antipromastigote assay (MTT). In kind it is cell-based. The conditions noted are these: 72 h of incubation; interval in brackets; read-out: Antileishmanial effect in Leishmania amazonensis IC50 Promastigote. Here is the method:
Leishmania amazonensis–WT promastigotes, in the logarithmic phase of growth, were transferred to 96-well culture plates (final concentration 2 × 10^6 cells/mL) and exposed to different concentrations of inhbitors during 72 h at 25 °C. The cell viability was evaluated by the 3-(4,5-dimethylthiazol-2-yl)-2,5 diphenyltetrazolium bromide (MTT) method (obtained from Sigma-Aldrich). The inhibitory concentration of 50% of parasite growth (IC50) values were calculated using GraphPad Prism 8 software […]. Three independent experiments in triplicate were performed. Amphotericin B (Cristália, São Paulo, SP, Brazil) was used as a reference drug.

Series [3] concerns L. amazonensis (RFP) amastigotes. Put plainly: Antiamastigote assay (RFP fluorescence, infected peritoneal macrophages). In kind it is cell-based. The following applies: Leishmania amazonensis, Peritoneal macrophage; 72 h of incubation; interval in brackets; read-out: Antileishmanial effect in Leishmania amazonensis IC50 Amastigote. Here is the method:
Peritoneal macrophages from BALB/c mice were obtained by peritoneal lavage and distributed in 24-well plates at 2 × 10^6 cells/mL in RPMI medium (Cultilab) containing 10% FBS and a 0.5% penicillin and streptomycin solution (complete RPMI). The plates were incubated for 1 h at 37 °C and 5% CO2, washed with phosphate-buffered saline (PBS), and then reincubated in complete RPMI medium overnight. The cells were washed again with PBS and infected with stationary growth phase L. amazonensis (RFP) promastigotes at a 10:1 ratio for 4 h at 33 °C. The plates were washed with PBS and the inhibitors were added at different concentrations and incubated for 72 h. After this time, each well was scraped to remove attached cells and the reading was taken with a spectrofluorimeter (FLx800, BioTek Instruments, Winooski, VT, USA) at 530 nm and 590 nm of excitation and emission, respectively. […] All assays were performed in triplicate and repeated three times. Results were calculated as the percentage of amastigote survival compared with the nontreated control group, and IC50 values were determined using GraphPad Prism 8 software.

The test system of series [4] is Leishmania amazonensis-RFP promastigotes. Kind of series: Viability of promastigotes after 1 h of treatment with inhibitors. Format: cell-based. The following applies: 1 h treatment, washed; 0 h, 24 h, 48 h and 72 h of incubation. The procedure:
Leishmania amazonensis-RFP promastigotes were treated with different concentrations of inhibitors during 1 h at 25 °C and were washed with PBS. Then, these cells had their viability determined by fluorescence analysis using a spectrofluorimeter (time = 0 h) and were also reincubated in complete RPMI medium for subsequent analysis of cell viability after 24 h, 48 h, and 72 h (times = 24 h, 48 h, and 72 h) by fluorescence analysis.

In series [5] the test system is L. amazonensis in peritoneal macrophages. Put plainly: Promastigote pretreatment and infection of peritoneal macrophages. Format: cell-based, Leishmania amazonensis. Here is the method:
Leishmania amazonensis-RFP promastigotes were pretreated with different concentrations of inhbitors during 1 h at 25 °C. The cells were washed with PBS and used to infect peritoneal macrophages from BALB/c mice (10:1 ratio), not pretreated or pretreated with 0.5 ng/mL IFN-γ overnight, in 24-well plates. After 4 h of interaction, the plates were washed with PBS and (1) scraped to remove attached cells and read using a spectrofluorimeter (time = 0 h) or (2) incubated at 33 °C with 5% CO2 for 24 h, 48 h, and 72 h for later scraping and reading (times = 24 h, 48 h, and 72 h). Three experiments were performed, each one with three replicates.
The same experiment was repeated, but using 13 mm glass coverslips in 24-well plates. The fixation with ethanol and staining with Giemsa were performed. Subsequently, the slides were examined in an optical microscope (Olympus BX53, Shinjuku, Tokyo, Japan) and photographed (Olympus DP73, Shinjuku, Tokyo, Japan).

In series [6] the test system is L. amazonensis promastigotes. More on the design: method as in PMID 17726617. The conditions noted are these: 1 mM; 24 h, 48 h and 72 h of treatment; cited from earlier work.
The subject of series [7] is L. donovani serine proteases. More on the design: method as in PMID 26040107. The conditions noted are these: cited from earlier work.
Series [8] concerns L. donovani promastigotes. More on the design: method as in PMID 26040107. The conditions noted are these: aprotinin 1 µM, benzamidine 1 mM; after 5 h, 10 h, 15 h and 20 h of incubation; cited from earlier work.
Series [9] deals with L. donovani in RAW 264.7 cells. More on the design: method as in PMID 26040107. The conditions noted are these: promastigotes pretreated 2 h; cited from earlier work.

Consider `CC(C)C[C@H](NC(=O)[C@H]1O[C@@H]1C(=O)O)C(=O)NCCCCN=C(N)N` [E-64], for which the “enzymatic activity on serine protease substrate” value in series [1] is “no impact on the activity”.
Usually CC50 stands for the concentration that lowers cell viability or growth by half. A word on the IC50: it is the concentration that inhibits the measured activity by half. Compound `N=C(N)c1ccccc1` [Benzamidine, benzamidine] yielded a CC50 at 72 h in “Cytotoxicity assay (MTT)” of 240 µM. Besides, the IC50 in series [2] and in series [3] was greater than 200 µM in each case. Also, the “viability of promastigotes after 1 h of treatment, compared with the control” value in [4] is reported as “did not change the viability”. Further, the “entry of promastigotes into macrophages” value in series [5] (promastigotes pretreated 1 h, 0 h after 4 h interaction) is “did not change the entry”. Also, the “permanence and survival of amastigotes within host cells” value in series [5] (promastigotes pretreated 1 h with 200 µM or 6.25 µM, up to 72 h) is “did not alter the permanence and survival”. The “viability of L. amazonensis promastigotes” value in [6] is listed as “reduced the viability”. The “inhibition of the proteolytic activity” value in series [7] (1 mM) is on record as 72%. The “cell viability of L. donovani promastigotes” value in series [8] is given as “reduced the cell viability”. Moreover, the “intracellular survival of the parasites (ranking of inhibitors)” value in series [9] is recorded as “most reduced the intracellular survival”.
Consider aprotinin, for which the “inhibition of the proteolytic activity” value in [7] (1 µM) is given as 100%. The “cell viability of L. donovani promastigotes” value in series [8] is recorded as “reduced the cell viability”. Further, in series [9], the “intracellular survival of the parasites (ranking of inhibitors)” value is “most reduced the intracellular survival”.
Regarding `C[C@@H]1[C@H](O)[C@@H](C)/C=C/C=C/C=C/C=C/C=C/C=C/C=C/[C@H](O[C@@H]2O[C@H](C)[C@@H](O)[C@H](N)[C@@H]2O)C[C@@H]2O[C@](O)(C[C@@H](O)C[C@@H](O)[C@H](O)CC[C@@H](O)C[C@@H](O)CC(=O)O[C@H]1C)C[C@H](O)[C@H]2C(=O)O` [AMB, Amphotericin B], the cytotoxic concentration (CC50) at 72 h in the series “Cytotoxicity assay (MTT)” (peritoneal macrophages, 72 h of incubation, MTT, interval in brackets, read-out: Peritoneal macrophages CC50) came out at 21.8 µM. In addition, the IC50 in series [2] came to 0.12 µM.
